According to patent US6251900A, “Heterocyclic compounds and antitumor agent containing the same as active ingredient” (Zenyaku Kogyo Kabushiki Kaisha, priority 1997, dated 2001):

Assays:
[1] = Acute toxicity in BDF1 male mice (Test 3); details: mouse, in vivo, po, orally or abdominally administered, observation for 14 days
Procedure: The acute toxicity was determined by orally or abdominally administrating the compound 9 or 22 of the present invention, which was adjusted by distilled water added with 1% of hydroxypropyl cellulose, to BDF1 male mice (6-weeks-old, having a body weight of 25±2.5 g) and LD50 was obtained over observation for 14 days. As a result, it was found out that LD50 of any of the compounds was 400-800 mg/kg.

[2] = system: M5076 mouse reticulum cell sarcoma cells; assay: Tumor growth inhibition, M5076 mouse reticulum cell sarcoma transplanted subcutaneously in BDF1 mice (Test 2); assay type: in vivo; details: abdominally administered for 9 days, tumor weight on day 21
Procedure: The treated group to which the test sample was administered consisted of seven mice while the control group consisted of ten mice. Six weeks old male mice (BDF1, 25±2.5 g) were employed as host animals.
M5076 mouse reticulum cell sarcoma cells routinely cultured in abdominal of C57BL/6 male mice were diluted with cold Hanks solution and 1.0×10^6 cells of them were transplanted subcutaneously into left breast of each mouse. The samples prepared by suspending test compounds in 1% hydroxypropyl cellulose (HPC) were abdominally administered for 9 days after the day after the transplantation. After 21 days passed from the transplantation of the tumor, the mice were killed and the tumors were extracted out to measure the tumor weights of the respective groups.
Effect of sample was calculated as tumor growth inhibition by the following formula:
Tumor Growth Inhibition (%)=(1-T/C)×100
T: tumor weight of group with sample administered
C: tumor weight of control group

[3] = system: MCF-7 cells; assay: Growth inhibition of MCF-7 human breast cancer cells, 72 h culture (Test 1); assay type: cell-based; details: MCF7, 37° C., read-out: 50% Growth inhibition concentrations (GI50)
Procedure: Used in the test were MCF-7 cells which were established from human breast cancer and were cultured routinely under the conditions of 37° C. and 5% CO2, in RPMI 1640 medium supplemented with 10% fetal calf serum, HEPES buffer solution (25 mM) and kanamycin (0.1 mg/ml). Single cell suspension was prepared by adding trypsin/EDTA to the medium so as to be adjusted to 4.0×10^4 cells/ml. Test compounds were dissolved or suspended in DMSO or RPMI 1640 medium at a concentration of 1.0×10^-4 -1.0×10^-9 M.
The cell suspension and the sample solution or suspension were filled in a 96-wells microplate at a rate of 0.1 ml of the former and 0.1 ml of the latter per well and cultured at 37° C. for 72 hours in 5% CO2.
50% Growth inhibition concentrations (GI50 μM) were calculated from growth inhibitions at various sample concentrations.

Structure (SMILES)	LD50 at 336 h [1] [mg/kg]	Tumor Growth Inhibition (%) ([2]; 200 mg/kg)	GI50 [3] [nM]	Tumor Growth Inhibition (%) ([2]; 100 mg/kg)
C[C@@H]1OCCN(c2nc(N3CCOCC3)nc(-n3cnc4ccccc43)n2)[C@H]1C (relative stereo) [compound 9, 2-(benzimidazol-1-yl)-4-(trans-2,3-dimethylmorpholino)-6-morpholino-1,3,5-triazine]	400 to 800	98.6	1200	–
C[C@@H]1OCCN(c2cc(N3CCOCC3)nc(-n3cnc4ccccc43)n2)[C@H]1C (relative stereo) [compound 22, 2-(benzimidazol-1-yl)-4-(trans-2,3-dimethylmorpholino)-6-morpholinopyrimidine]	400 to 800	–	2200	83.8
